The values that follow are results of earlier work, collected in US20180055969A1, “BIPHASIC CERAMIC BONE SUBSTITUTE” (BONE SUPPORT AB, priority 2015, published 2018).

SMILES strings stand for the structures.

This data set deals with bone resorption. The conditions noted are these: for potency compared with etidronate: times as potent as etidronate; for potency relative to etidronate: value in parenthesis, etidronate as reference.

For the compound `O=P(O)(O)C(Cl)(Cl)P(=O)(O)O` [Clodronate, clodronate], the “potency compared with etidronate” value is listed as 10 times.

Take `NCCCC(O)(P(=O)(O)O)P(=O)(O)O` [alendronate]: the “potency compared with etidronate” value is 10-100 times and the “potency relative to etidronate” value was 500.

Consider `CCCCCN(C)CCC(O)(P(=O)(O)O)P(=O)(O)O` [ibandronate], for which the “potency relative to etidronate” value was 1000.

`NCCCCCC(O)(P(=O)(O)O)P(=O)(O)O` [neridronate]: the “potency relative to etidronate” value is 100.

Regarding `CN(C)CCC(O)(P(=O)(O)O)P(=O)(O)O` [olpadronate], the “potency relative to etidronate” value is 500.

In the case of `NCCC(O)(P(=O)(O)O)P(=O)(O)O` [pamidronate], the “potency relative to etidronate” value is listed as 100.

For the compound `O=P(O)(O)C(O)(Cc1cccnc1)P(=O)(O)O` [risedronate], the “potency relative to etidronate” value was 2000.

On to `O=P(O)(O)C(Sc1ccc(Cl)cc1)P(=O)(O)O` [tiludronate], for which the “potency compared with etidronate” value is given as 10 times.

As for `O=P(O)(O)C(O)(Cn1ccnc1)P(=O)(O)O` [zoledronate], the “potency compared with etidronate” value is reported as “up to 10.000 times” and the “potency relative to etidronate” value is reported as 10000.
